Measured values as given in US9555022B2, “Substituted triazolopyridines” (Bayer Intellectual Property GmbH, priority 2010, dated 2017).
Where a name gives a salt, the structure may show the parent alone.

Target: human full length recombinant Mps-1 kinase (Homo sapiens (Human), UniProt P33981)
Assay: Mps-1 Kinase Assay (TR-FRET)
Type: biochemical
Details: 10 μM ATP, 1 μM biotinylated peptide substrate, 60 min at 22° C., read-out: Mps-1 Inhibition, IC50 in M
Description: The human kinase Mps-1 phosphorylates a biotinylated substrate peptide. Detection of the phosphorylated product is achieved by time-resolved fluorescence resonance energy transfer (TR-FRET) from Europium-labelled anti-phospho-Serine/Threonine antibody as donor to streptavidin labelled with cross-linked allophycocyanin (SA-XLent) as acceptor. Compounds are tested for their inhibition of the kinase activity.
N-terminally GST-tagged human full length recombinant Mps-1 kinase (purchased from Invitrogen, Karslruhe, Germany, cat. no PV4071) was used. As substrate for the kinase reaction a biotinylated peptide of the amino-acid sequence […] (C-terminus in amide form, purchased from Biosynthan GmbH, Berlin) was used.
The concentration of Mps-1 in the assay was adjusted to the activity of the enzyme lot and was chosen appropriate to have the assay in the linear range, typical enzyme concentrations were in the range of about 1 nM (final conc. in the 5 μl assay volume).
The resulting mixture was incubated 1 h at 22° C. to allow the binding of the phosphorylated peptide to the anti-phospho(Ser/Thr)-Europium-antibody. Subsequently the amount of phosphorylated substrate was evaluated by measurement of the resonance energy transfer from the Europium-labelled anti-phospho(Ser/Thr) antibody to the Streptavidin-XLent.

Chain of human full length recombinant Mps-1 kinase (P33981 whole entry): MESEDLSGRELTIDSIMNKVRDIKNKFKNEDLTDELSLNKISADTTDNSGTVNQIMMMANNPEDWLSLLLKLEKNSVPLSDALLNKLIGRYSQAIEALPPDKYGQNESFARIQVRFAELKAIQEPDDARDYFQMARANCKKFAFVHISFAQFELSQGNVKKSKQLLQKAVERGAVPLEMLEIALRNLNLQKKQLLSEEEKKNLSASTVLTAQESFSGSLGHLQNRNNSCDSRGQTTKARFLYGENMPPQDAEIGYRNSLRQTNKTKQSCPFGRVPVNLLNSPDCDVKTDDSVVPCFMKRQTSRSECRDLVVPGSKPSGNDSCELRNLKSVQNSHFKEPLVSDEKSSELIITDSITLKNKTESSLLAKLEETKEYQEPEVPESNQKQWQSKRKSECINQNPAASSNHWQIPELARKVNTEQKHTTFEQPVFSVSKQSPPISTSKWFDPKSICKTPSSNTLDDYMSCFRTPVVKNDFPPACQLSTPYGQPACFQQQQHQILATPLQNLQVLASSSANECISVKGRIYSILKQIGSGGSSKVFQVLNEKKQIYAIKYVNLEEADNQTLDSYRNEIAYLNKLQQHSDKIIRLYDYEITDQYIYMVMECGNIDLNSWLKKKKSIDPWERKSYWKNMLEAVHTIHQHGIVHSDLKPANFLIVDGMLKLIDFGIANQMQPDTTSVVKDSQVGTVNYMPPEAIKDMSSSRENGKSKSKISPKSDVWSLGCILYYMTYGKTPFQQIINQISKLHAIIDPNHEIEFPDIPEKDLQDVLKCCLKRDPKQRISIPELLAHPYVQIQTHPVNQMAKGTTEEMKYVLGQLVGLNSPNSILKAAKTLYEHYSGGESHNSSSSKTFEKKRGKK

| Structure (SMILES) | IC50 [nM] |
| --- | --- |
| O=C(Cc1ccc(F)cc1)Nc1ccc(-c2ccc3nc(Nc4ccc(C(=O)N5CC6(COC6)C5)cc4OC(F)(F)F)nn3c2)cc1 [Example 02.40, 2-(4-fluorophenyl)-N-[4-(2-{[4-(2-oxa-6-azaspiro[3.3]hept-6-ylcarbonyl)-2-(trifluoromethoxy)phenyl]amino}[,2]triazolo[1,5-a]pyridin-6-yl)phenyl]acetamide] | ≤ 1 |
| COc1ccc(C(=O)N2CCOCC2)cc1Nc1nc2ccc(-c3ccc(NC(=O)Cc4ccc(F)cc4)cc3)cn2n1 [Example 02.41, 2-(4-fluorophenyl)-N-[4-(2-{[2-methoxy-5-(morpholin-4-ylcarbonyl)phenyl]amino}[,2]-triazolo[1,5-a]pyridin-6-yl)phenyl]acetamide] | ≤ 1 |
| Cc1nc(N2CCOCC2)ccc1Nc1nc2ccc(-c3ccc(NC(=O)Cc4ccc(F)cc4)cc3)cn2n1 [Example 02.42, 2-(4-fluorophenyl)-N-[4-(2-{[2-methyl-6-(morpholin-4-yl)pyridin-3-yl]amino}[,2]-triazolo[1,5-a]pyridin-6-yl)phenyl]acetamide] | ≤ 1 |
| Cc1nc(N2CCCC2)ccc1Nc1nc2ccc(-c3ccc(NC(=O)Cc4ccc(F)cc4)cc3)cn2n1 [Example 02.43, 2-(4-fluorophenyl)-N-[4-(2-{[2-methyl-6-(pyrrolidin-1-yl)pyridin-3-yl]amino}[,2]-triazolo[1,5-a]pyridin-6-yl)phenyl]acetamide] | ≤ 1 |
| COc1cc(C(=O)N2CCOCC2)ccc1Nc1nc2ccc(-c3ccc(C(=O)NCC4CC4)cc3)cn2n1 [Example 03.01, N-(cyclopropylmethyl)-4-(2-{[2-methoxy-4-(morpholin-4-ylcarbonyl)phenyl]amino}[,2]-triazolo[1,5-a]pyridin-6-yl)benzamide] | 2.71 |
| CCOc1cc(C(=O)N2CCOCC2)ccc1Nc1nc2ccc(-c3ccc(C(=O)NCC4CC4)cc3)cn2n1 [Example 03.02, N-(cyclopropylmethyl)-4-(2-{[2-ethoxy-4-(morpholin-4-ylcarbonyl)phenyl]amino}[,2]-triazolo[1,5-a]pyridin-6-yl)benzamide] | ≤ 1 |
| COc1cc(C2=NC(C)(C)CO2)ccc1Nc1nc2ccc(-c3ccc(C(=O)NCC4CC4)cc3)cn2n1 [Example 03.03, N-(cyclopropylmethyl)-4-(2-{[4-(4,4-dimethyl-4,5-dihydro-1,3-oxazol-2-yl)-2-methoxyphenyl]amino}[,2]-triazolo[1,5-a]pyridin-6-yl)benzamide] | 5.51 |
| CCOc1cc(C(=O)NC2CCN(C)CC2)ccc1Nc1nc2ccc(-c3ccc(C(=O)NCC4CC4)cc3)cn2n1 [Example 03.04, 4-[(6-{4-[(cyclopropylmethyl)carbamoyl]phenyl}[,2]triazolo[1,5-a]pyridin-2-yl)amino]-3-ethoxy-N-(1-methylpiperidin-4-yl)benzamide] | ≤ 1 |
| COc1cc(N2CCN(C)CC2)ccc1Nc1nc2ccc(-c3ccc(C(=O)NCC4CC4)cc3)cn2n1 [Example 03.05, N-(cyclopropylmethyl)-4-(2-{[2-methoxy-4-(4-methylpiperazin-1-yl)phenyl]amino}[,2]-triazolo[1,5-a]pyridin-6-yl)benzamide trifluoroacetate] | 6.33 |
| O=C(NCC1CC1)c1ccc(-c2ccc3nc(Nc4ccc(C(=O)N5CCOCC5)cc4OCC(F)(F)F)nn3c2)cc1 [Example 03.06, N-(cyclopropylmethyl)-4-(2-{[4-(morpholin-4-ylcarbonyl)-2-(2,2,2-trifluoroethoxy)phenyl]amino}[,2]-triazolo[1,5-a]pyridin-6-yl)benzamide] | ≤ 1 |
| COc1cc(C(=O)N2CC3(COC3)C2)ccc1Nc1nc2ccc(-c3ccc(C(=O)NCC4CC4)cc3)cn2n1 [Example 03.07, N-(cyclopropylmethyl)-4-(2-{[2-methoxy-4-(2-oxa-6-azaspiro[3.3]hept-6-ylcarbonyl)phenyl]amino}[,2]triazolo[1,5-a]pyridin-6-yl)benzamide] | ≤ 1 |
| COc1cc(C(=O)N2CCOCC2)ccc1Nc1nc2ccc(-c3ccc(C(=O)NCc4ccc(F)cc4)cc3)cn2n1 [Example 04.01, N-(4-Fluorbenzyl)-4-(2-{[2-methoxy-4-(morpholin-4-ylcarbonyl)phenyl]amino}[,2]-triazolo[1,5-a]pyridin-6-yl)benzamid] | ≤ 1 |
| CCOc1cc(C(=O)N2CCOCC2)ccc1Nc1nc2ccc(-c3ccc(C(=O)NCc4ccc(F)cc4)cc3)cn2n1 [Example 04.02, 4-(2-{[2-Ethoxy-4-(morpholin-4-ylcarbonyl)phenyl]amino}[,2]-triazolo[1,5-a]pyridin-6-yl)-N-(4-fluorbenzyl)benzamid] | ≤ 1 |
| COc1cc(N2CCOC2=O)ccc1Nc1nc2ccc(-c3ccc(C(=O)NCc4ccc(F)cc4)cc3)cn2n1 [Example 04.03, N-(4-fluorobenzyl)-4-(2-{[2-methoxy-4-(2-oxo-1,3-oxazolidin-3-yl)phenyl]amino}[,2]-triazolo[1,5-a]pyridin-6-yl)benzamide] | ≤ 1 |
| CCOc1cc(N2CCOC2=O)ccc1Nc1nc2ccc(-c3ccc(C(=O)NCc4ccc(F)cc4)cc3)cn2n1 [Example 04.04, 4-(2-{[2-ethoxy-4-(2-oxo-1,3-oxazolidin-3-yl)phenyl]amino}[,2]triazolo[1,5-a]pyridin-6-yl)-N-(4-fluorobenzyl)benzamide] | ≤ 1 |
| COc1cc(C2=NCCO2)ccc1Nc1nc2ccc(-c3ccc(C(=O)NCc4ccc(F)cc4)cc3)cn2n1 [Example 04.05, 4-(2-{[4-(4,5-dihydro-1,3-oxazol-2-yl)-2-methoxyphenyl]amino}[,2]-triazolo[1,5-a]pyridin-6-yl)-N-(4-fluorobenzyl)benzamide] | ≤ 1 |
| COc1cc(C(=O)N2C[C@@H]3C[C@H]2CO3)ccc1Nc1nc2ccc(-c3ccc(C(=O)NCc4ccc(F)cc4)cc3)cn2n1 [Example 04.06, N-(4-fluorobenzyl)-4-[2-({2-methoxy-4-[(1S,4S)-2-oxa-5-azabicyclo[2.2.1]hept-5-ylcarbonyl]phenyl}amino)[,2]triazolo[1,5-a]pyridin-6-yl]benzamide] | ≤ 1 |
| COc1cc(C(=O)N2CC3(COC3)C2)ccc1Nc1nc2ccc(-c3ccc(C(=O)NCc4ccc(F)cc4)cc3)cn2n1 [Example 04.07, N-(4-fluorobenzyl)-4-(2-{[2-methoxy-4-(2-oxa-6-azaspiro[3.3]hept-6-ylcarbonyl)phenyl]amino}[,2]triazolo[1,5-a]pyridin-6-yl)benzamide] | ≤ 1 |
| COc1cc(C(=O)N2CC(O)C2)ccc1Nc1nc2ccc(-c3ccc(C(=O)NCc4ccc(F)cc4)cc3)cn2n1 [Example 04.08, N-(4-fluorobenzyl)-4-[2-({4-[(3-hydroxyazetidin-1-yl)carbonyl]-2-methoxyphenyl}amino)[,2]-triazolo[1,5-a]pyridin-6-yl]benzamide] | ≤ 1 |
| COc1cc(C(=O)N2CCS(=O)(=O)CC2)ccc1Nc1nc2ccc(-c3ccc(C(=O)NCc4ccc(F)cc4)cc3)cn2n1 [Example 04.09, 4-[2-({4-[(1,1-dioxidothiomorpholin-4-yl)carbonyl]-2-methoxyphenyl}amino)[,2]triazolo[1,5-a]pyridin-6-yl]-N-(4-fluorobenzyl)benzamide] | ≤ 1 |
| COc1cc(C(=O)N2CCC(O)CC2)ccc1Nc1nc2ccc(-c3ccc(C(=O)NCc4ccc(F)cc4)cc3)cn2n1 [Example 04.10, N-(4-fluorobenzyl)-4-[2-({4-[(4-hydroxypiperidin-1-yl)carbonyl]-2-methoxyphenyl}amino)[,2]triazolo[1,5-a]pyridin-6-yl]benzamide] | ≤ 1 |
| COc1cc(C(=O)NC2COC2)ccc1Nc1nc2ccc(-c3ccc(C(=O)NCc4ccc(F)cc4)cc3)cn2n1 [Example 04.11, 4-[(6-{4-[(4-fluorobenzyl)carbamoyl]phenyl}[,2]triazolo[1,5-a]pyridin-2-yl)amino]-3-methoxy-N-(oxetan-3-yl)benzamide] | ≤ 1 |
| CCOc1cc(C(=O)N2CC3(COC3)C2)ccc1Nc1nc2ccc(-c3ccc(C(=O)NCc4ccc(F)cc4)cc3)cn2n1 [Example 04.12, 4-(2-{[2-ethoxy-4-(2-oxa-6-azaspiro[3.3]hept-6-ylcarbonyl)phenyl]amino}[,2]-triazolo[1,5-a]pyridin-6-yl)-N-(4-fluorobenzyl)benzamide] | ≤ 1 |
| CCOc1cc(C(=O)N2CCN(C(C)=O)CC2)ccc1Nc1nc2ccc(-c3ccc(C(=O)NCc4ccc(F)cc4)cc3)cn2n1 [Example 04.13, 4-[2-({4-[(4-acetylpiperazin-1-yl)carbonyl]-2-ethoxyphenyl}amino)[,2]triazolo[1,5-a]pyridin-6-yl]-N-(4-fluorobenzyl)benzamide] | ≤ 1 |
| CCOc1cc(C(=O)N2CC(O)C2)ccc1Nc1nc2ccc(-c3ccc(C(=O)NCc4ccc(F)cc4)cc3)cn2n1 [Example 04.14, 4-[2-({2-ethoxy-4-[(3-hydroxyazetidin-1-yl)carbonyl]phenyl}amino)[,2]triazolo[1,5-a]pyridin-6-yl]-N-(4-fluorobenzyl)benzamide] | ≤ 1 |
| O=C(NCc1ccc(F)cc1)c1ccc(-c2ccc3nc(Nc4ccc(C(=O)N5CC6(COC6)C5)cc4OCC(F)(F)F)nn3c2)cc1 [Example 04.15, N-(4-fluorobenzyl)-4-(2-{[4-(2-oxa-6-azaspiro[3.3]hept-6-ylcarbonyl)-2-(2,2,2-trifluoroethoxy)phenyl]amino}[,2]-triazolo[1,5-a]pyridin-6-yl)benzamide] | ≤ 1 |
